Data reported in PubChem BioAssay AID248 (DTP/NCI, 2004).
Several values for one entry are separate records, joined by “and”; a condition that tells them apart may be missing. Equal values may be shown once. Inconclusive results and toxic doses are left out. Cut-off read from the data, not from the text of the source: active = T/C of 150% or more; inactive = T/C below 125%.

Tested on: L1210 leukemia ip in BDF1 mice, survival T/C
Assay: NCI In Vivo Anticancer Drug Screen. Data for tumor model L1210 Leukemia (intraperitoneal) in B6D2F1 (BDF1) mice
Conditions: endpoint: mean survival time, higher = longer survival
Outline: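 Survival endpoint. Drug-treated group vs vehicle group, expressed as T divided by C. Tumor passaged by transplantation.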

[1] = dose: 100.0 mg/kg/injection, schedule: Q04DX003 (ip), vehicle: saline
[2] = dose: 200.0 mg/kg/injection, schedule: Q04DX003 (ip), vehicle: saline
[3] = dose: 400.0 mg/kg/injection, schedule: Q04DX003 (ip), vehicle: saline
[4] = dose: 100.0 mg/kg/injection, schedule: Q01DX009 (ip), vehicle: saline
[5] = dose: 200.0 mg/kg/injection, schedule: Q01DX009 (ip), vehicle: saline
[6] = dose: 400.0 mg/kg/injection, schedule: Q01DX009 (ip), vehicle: saline
[7] = dose: 50.0 mg/kg/injection, schedule: Q04DX002 (ip), vehicle: Klucel (hydroxypropylcellulose) (HPC)
[8] = dose: 100.0 mg/kg/injection, schedule: Q04DX003 (ip), vehicle: Klucel (hydroxypropylcellulose) (HPC)
[9] = dose: 200.0 mg/kg/injection, schedule: Q04DX003 (ip), vehicle: Klucel (hydroxypropylcellulose) (HPC)
[10] = dose: 400.0 mg/kg/injection, schedule: Q04DX003 (ip), vehicle: Klucel (hydroxypropylcellulose) (HPC)
[11] = dose: 100.0 mg/kg/injection, schedule: Q04DX003 (ip), vehicle: saline with Tween-80
[12] = dose: 200.0 mg/kg/injection, schedule: Q04DX003 (ip), vehicle: saline with Tween-80
[13] = dose: 100.0 mg/kg/injection, schedule: Q01DX009 (ip), vehicle: Klucel (hydroxypropylcellulose) (HPC)
[14] = dose: 200.0 mg/kg/injection, schedule: Q01DX009 (ip), vehicle: Klucel (hydroxypropylcellulose) (HPC)
[15] = dose: 400.0 mg/kg/injection, schedule: Q01DX009 (ip), vehicle: Klucel (hydroxypropylcellulose) (HPC)
[16] = dose: 400.0 mg/kg/injection, schedule: Q04DX003 (ip), vehicle: saline with Tween-80
[17] = dose: 100.0 mg/kg/injection, schedule: Q01DX001 (ip), vehicle: carboxymethylcellulose (CMC)
[18] = dose: 200.0 mg/kg/injection, schedule: Q01DX001 (ip), vehicle: carboxymethylcellulose (CMC)
[19] = dose: 50.0 mg/kg/injection, schedule: Q01DX009 (ip), vehicle: saline with Tween-80
[20] = dose: 100.0 mg/kg/injection, schedule: Q01DX009 (ip), vehicle: saline with Tween-80
[21] = dose: 200.0 mg/kg/injection, schedule: Q01DX009 (ip), vehicle: saline with Tween-80

Measured: T/C

CCNC(=O)C1C2CCC(C2)C1C(=O)NCC (stereo not drawn)
inactive: [1] 104 % of control | [2] 87 % of control | [3] 96 % of control

O=[N+]([O-])c1ccc(Nc2ccncc2)cc1
inactive: [4] 103 % of control | [1] 106 % of control | [5] 106 % of control | [2] 103 % of control | [6] 104 % of control | [3] 114 % of control

NC(C[Se][Se]CC(N)C(=O)O)C(=O)O (stereo not drawn)
inactive: dose: 1.56 mg/kg/injection, schedule: Q04DX002 (ip), vehicle: saline 103 % of control | dose: 3.12 mg/kg/injection, schedule: Q04DX002 (ip), vehicle: saline 103 % of control | dose: 6.25 mg/kg/injection, schedule: Q04DX002 (ip), vehicle: saline 103 % of control | dose: 12.5 mg/kg/injection, schedule: Q04DX002 (ip), vehicle: saline 88 % of control

NC(=S)N/N=C/c1c(Cl)n(C(=O)c2ccc(Cl)cc2)c2ccccc12
inactive: [7] 91 % of control | dose: 100.0 mg/kg/injection, schedule: Q04DX002 (ip), vehicle: Klucel (hydroxypropylcellulose) (HPC) 87 % of control | dose: 200.0 mg/kg/injection, schedule: Q04DX002 (ip), vehicle: Klucel (hydroxypropylcellulose) (HPC) 91 % of control

COc1ccc(C(=O)/C=C/c2ccc(OC)c(OC)c2)cc1
inactive: [8] 95 % of control | [9] 92 % of control | [10] 100 % of control

O=S(=O)(SSS(=O)(=O)c1ccc(Cl)cc1)c1ccc(Cl)cc1
inactive: [1] 90 % of control | [2] 90 % of control | [3] 90 % of control

CCCCC(CC)CO.[Ti] (stereo not drawn)
inactive: [11] 96 % of control | [12] 96 % of control

COC1C2CCC1[N+](C)(C)CC2 (stereo not drawn)
inactive: dose: 25.0 mg/kg/injection, schedule: Q01DX009 (ip), vehicle: saline 101 % of control | dose: 50.0 mg/kg/injection, schedule: Q01DX009 (ip), vehicle: saline 105 % of control | [4] 107 % of control and 110 % of control

CCCCNC(=O)Nc1ccccc1CC
inactive: [13] 93 % of control | [8] 95 % of control | [14] 96 % of control | [9] 106 % of control | [15] 93 % of control | [10] 97 % of control

O=C(COc1ccc(Cl)c(Cl)c1)NCc1ccc[n+](Cc2ccc([N+](=O)[O-])cc2)c1
inactive: [11] 89 % of control | [12] 91 % of control | [16] 88 % of control

CCC1=C/C(=C\c2ccc3c(c2)OCO3)C(=O)S1
inactive: dose: 200.0 mg/kg/injection, schedule: Q04DX002 (ip), vehicle: saline with Tween-80 89 % of control | dose: 400.0 mg/kg/injection, schedule: Q04DX002 (ip), vehicle: saline with Tween-80 89 % of control

Nc1nc(N)c(CCCOc2ccc(NC(=O)c3cc(S(=O)(=O)F)ccc3Cl)cc2)c(N)n1
inactive: dose: 100.0 mg/kg/injection, schedule: Q01DX001 (ip), vehicle: Klucel (hydroxypropylcellulose) (HPC) 99 % of control | dose: 200.0 mg/kg/injection, schedule: Q01DX001 (ip), vehicle: Klucel (hydroxypropylcellulose) (HPC) 99 % of control | dose: 400.0 mg/kg/injection, schedule: Q01DX001 (ip), vehicle: Klucel (hydroxypropylcellulose) (HPC) 105 % of control

NC(CC(=O)NCC(=O)O)C(=O)O (stereo not drawn)
inactive: dose: 12.5 mg/kg/injection, schedule: Q04DX002 (ip), vehicle: Klucel (hydroxypropylcellulose) (HPC) 105 % of control | dose: 25.0 mg/kg/injection, schedule: Q04DX002 (ip), vehicle: Klucel (hydroxypropylcellulose) (HPC) 98 % of control | [7] 94 % of control

COc1ccccc1/C=C1\SC(=O)N(CCNC(C)=O)C1=O
inactive: dose: 100.0 mg/kg/injection, schedule: Q01DX001 (ip), vehicle: saline 98 % of control | dose: 200.0 mg/kg/injection, schedule: Q01DX001 (ip), vehicle: saline 100 % of control | dose: 400.0 mg/kg/injection, schedule: Q01DX001 (ip), vehicle: saline 96 % of control

O=C1C2C3CC4C2C(=O)C2C1C3C42 (stereo not drawn)
inactive: dose: 75.0 mg/kg/injection, schedule: Q01DX001 (ip), vehicle: other 101 % of control | [4] 97 % of control | [1] 94 % of control | dose: 150.0 mg/kg/injection, schedule: Q01DX001 (ip), vehicle: other 101 % of control | [5] 94 % of control | [2] 104 % of control | dose: 300.0 mg/kg/injection, schedule: Q01DX001 (ip), vehicle: other 93 % of control | [6] 104 % of control | [3] 91 % of control

CC(=O)OC1CC2CCC1C2Br (stereo not drawn)
inactive: [17] 95 % of control | [18] 93 % of control | dose: 400.0 mg/kg/injection, schedule: Q01DX001 (ip), vehicle: carboxymethylcellulose (CMC) 90 % of control

NC(=O)NCCNC(N)=O
inactive: [4] 108 % of control | [1] 97 % of control | [5] 110 % of control | [2] 105 % of control | [6] 108 % of control | [3] 103 % of control

O=C1OC(=O)C2(Br)C3C=CC(C3)C12Br (stereo not drawn)
inactive: [11] 98 % of control | [12] 96 % of control | [16] 91 % of control

O=C(Nc1cc[n+](Cc2ccc(S(=O)(=O)F)cc2)cc1)c1ccccc1
inactive: [11] 96 % of control | [12] 98 % of control

COC(=O)C(N)CSC (stereo not drawn)
inactive: [4] 101 % of control | [1] 101 % of control | [5] 98 % of control | [2] 97 % of control | [6] 95 % of control | [3] 101 % of control

Fc1ccc(Nc2c3ccccc3nc3ccccc23)cc1
inactive: dose: 25.0 mg/kg/injection, schedule: Q01DX009 (ip), vehicle: saline with Tween-80 92 % of control | [19] 118 % of control | [20] 116 % of control

CN1CCC=C(C(=O)O)C1
inactive: dose: 50.0 mg/kg/injection, schedule: Q01DX001 (ip), vehicle: carboxymethylcellulose (CMC) 101 % of control | [17] 110 % of control | [18] 104 % of control

Cc1cc(OC(=O)Nc2ccc(F)c([N+](=O)[O-])c2)cc(C)c1Cl
inactive: [13] 101 % of control | [14] 93 % of control | [15] 95 % of control

BrC12CCC(CC1)C1CCC2CC1
inactive: [4] 90 % of control | [1] 96 % of control | [5] 87 % of control | [2] 97 % of control | [6] 88 % of control | [3] 98 % of control

CCOC(=O)CC1NCCC2C1CCC(OC)C2OC (stereo not drawn)
inactive: [19] 106 % of control | [8] 98 % of control | [21] 95 % of control | [9] 104 % of control

Cc1csc(C)n1
inactive: [20] 95 % of control | [11] 103 % of control | [21] 95 % of control | [12] 107 % of control | [16] 107 % of control

Oc1ccc(Br)cc1C=Nc1cnc2ccccc2c1
inactive: [17] 90 % of control | [18] 90 % of control

Cc1ccc(NC(=O)Sc2ccc(Cl)cc2)c([N+](=O)[O-])c1
inactive: dose: 50.0 mg/kg/injection, schedule: Q01DX009 (ip), vehicle: Klucel (hydroxypropylcellulose) (HPC) 109 % of control | [13] 98 % of control | [8] 102 % of control | [14] 106 % of control | [9] 104 % of control | [10] 109 % of control
